Assay results taken from article PMC12040169 (PLOS Biology, 2025).

Test: in vitro
Conditions: human, hela cells, % viability

Row | SMILES | viability at 28.5 h, 10 µM [%]
1 | Nc1ncc(-c2cccc3cccnc23)nc1N1CCOCC1 [CBK063383] | 93.2
2 | COc1ccc(C(C)C)cc1-c1cnc(N)c(N2CCOCC2)n1 [CBK063384] | 92.1
3 | Nc1ncc(-c2ccc(N3CCOCC3)cc2)nc1N1CCN(CCO)CC1 [CBK063394] | 95.8
4 | CCCC/C=C/c1cnc(N)c(N2CCOCC2)n1 [CBK063398] | 98.1
5 | COc1ccccc1-c1cnc(N)c(N2CCN(CCO)CC2)n1 [CBK063403] | 96.1
6 | Nc1ncc(-c2cc(C(F)(F)F)cc(C(F)(F)F)c2)nc1N1CCN(CCO)CC1 [CBK063426] | 103
7 | Nc1ncc(-c2ccoc2)nc1N1CCN(CCO)CC1 [CBK063428] | 98.8
8 | CC(=O)c1ccc(-c2cnc(N)c(N3CCN(C)CC3)n2)s1 [CBK063432] | 94.4
9 | CN1CCN(c2nc(-c3cccc(F)c3)cnc2N)CC1 [CBK063433] | 100
10 | Nc1ncc(-c2cccc(OC(F)(F)F)c2)nc1N1CCN(CCO)CC1 [CBK063435] | 94.9
11 | CC(=O)c1ccc(-c2cnc(N)c(N3CCC[C@@H]3CO)n2)s1 [CBK063438] | 97.9
12 | Nc1ncc(-c2ccco2)nc1N1CCC(C(=O)O)CC1 [CBK063440] | 87
13 | Nc1ncc(-c2cccc3ncccc23)nc1N1CCC[C@@H]1CO [CBK063441] | 105
14 | Nc1ncc(-c2ccco2)nc1N1CCOCC1 [CBK063456] | 80.2
15 | CN(C)CCN1CCN(c2nc(-c3ccc(S(C)(=O)=O)cc3)cnc2N)CC1 [CBK063457] | 100
16 | CC(C)(CO)CNc1nc(-c2ccc3c(c2)OCO3)cnc1N [CBK063459] | 105
17 | CN(C)CCN1CCN(c2nc(-c3cccc4cccnc34)cnc2N)CC1 [CBK063464] | 94.3
18 | CC(=O)Nc1cccc(-c2cnc(N)c(N3CCN(CCN(C)C)CC3)n2)c1 [CBK063472] | 91.1
19 | COCCNc1nc(-c2cccc(-c3ccccc3)c2)cnc1N [CBK063474] | 99.5
20 | CC(C)(CO)CNc1nc(-c2cccnc2)cnc1N [CBK063475] | 100
21 | CC(C)(CO)CNc1nc(-c2ccc(F)c(Cl)c2)cnc1N [CBK063484] | 102
22 | COc1cc(-c2cnc(N)c(N3CCN(CCN(C)C)CC3)n2)cc(OC)c1OC [CBK063488] | 94.4

Row | SMILES | viability at 28.5 h, 10 µM [%]
23 | COc1ccc(-c2cnc(N)c(N3CCN(C)CC3)n2)c(OC)c1OC [CBK063489] | 103
24 | CC(C)(CO)CNc1nc(-c2cc(C(F)(F)F)cc(C(F)(F)F)c2)cnc1N [CBK063490] | 101
25 | Nc1ncc(-c2cccc(-c3ccccc3)c2)nc1NCc1cccnc1 [CBK063491] | 93.5
26 | CC(C)(CO)CNc1nc(-c2ccsc2)cnc1N [CBK063499] | 103
27 | Nc1ncc(-c2cc(C(F)(F)F)cc(C(F)(F)F)c2)nc1N1CCC[C@@H]1CO [CBK063501] | 93.3
28 | CN(C)CCN1CCN(c2nc(-c3cccnc3)cnc2N)CC1 [CBK063503] | 93.6
29 | COc1cncc(-c2cnc(N)c(NCc3cccnc3)n2)c1 [CBK063531] | 110
30 | CN(C)CCN1CCN(c2nc(-c3cccc(C(N)=O)c3)cnc2N)CC1 [CBK063537] | 97.8
31 | Nc1ncc(-c2cc(C(F)(F)F)cc(C(F)(F)F)c2)nc1NCCCO [CBK063546] | 105
32 | COCCNc1nc(-c2cc(OC)c(OC)c(OC)c2)cnc1N [CBK063559] | 112
33 | CC(=O)Nc1cccc(-c2cnc(N)c(NCc3cccnc3)n2)c1 [CBK063562] | 103
34 | Nc1ncc(-c2cccc3ccccc23)nc1NCc1ccccc1 [CBK063565] | 99
35 | Nc1ncc(-c2ccc(-c3ccccc3)cc2)nc1NC1CCCCC1 [CBK063572] | 87.3
36 | COCCNc1nc(-c2ccccc2CO)cnc1N [CBK063575] | 108
37 | CN(C)CCNc1nc(-c2ccncc2)cnc1N [CBK063580] | 102
38 | COc1ccc(Nc2nc(-c3cccc(N)c3)cnc2N)cc1 [CBK063585] | 95.9
39 | CS(=O)(=O)c1ccc(-c2cnc(N)c(NCCCO)n2)cc1 [CBK063587] | 87.3
40 | COCCNc1nc(-c2ccc(F)cc2)cnc1N [CBK063591] | 116
41 | COc1ccc(Nc2nc(-c3cccc(-c4ccccc4)c3)cnc2N)cc1 [CBK063593] | 89.8
42 | Nc1ncc(-c2cccc(Br)c2)nc1NCCCO [CBK063603] | 91.3
43 | Nc1ncc(-c2ccncc2)nc1NC1CCCCC1 [CBK063604] | 80.9
44 | COCCNc1nc(-c2cncc(OC)c2)cnc1N [CBK063606] | 103

Row | SMILES | viability at 28.5 h, 10 µM [%]
45 | Nc1ncc(-c2cccc3cccnc23)nc1NC1CCCCC1 [CBK063613] | 107
46 | COc1ccc(C(C)C)cc1-c1cnc(N)c(NC2CCCCC2)n1 [CBK063618] | 108
47 | COc1ccc(C(C)C)cc1-c1cnc(N)c(NCCCN2CCOCC2)n1 [CBK063625] | 79.4
48 | COc1cc(-c2cnc(N)c(NCc3ccncc3)n2)cc(OC)c1OC [CBK063646] | 94.8
49 | CS(=O)(=O)c1ccc(-c2cnc(N)c(NCc3ccncc3)n2)cc1 [CBK063647] | 105
50 | Nc1ncc(-c2cccc(CO)c2)nc1NC1CCCCC1 [CBK063650] | 101
51 | Nc1ncc(-c2cc(C(F)(F)F)cc(C(F)(F)F)c2)nc1Nc1ccc2[nH]ccc2c1 [CBK063651] | 71.9
52 | Nc1ncc(-c2ccoc2)nc1NCc1ccco1 [CBK063652] | 97.2
53 | CC(=O)Nc1cccc(-c2cnc(N)c(N3CCC(C(=O)O)CC3)n2)c1 [CBK063657] | 98.9
54 | CN(C)CCNc1nc(-c2cncnc2)cnc1N [CBK063661] | 97.8
55 | Nc1ncc(-c2cccc(/C=C/C(=O)O)c2)nc1N1CCN(CCO)CC1 [CBK063665] | 98.7
56 | Nc1ncc(-c2ccc(O)cc2)nc1N1CCC[C@@H]1CO [CBK063669] | 91.7
57 | Nc1ncc(-c2cccc(O)c2)nc1NCc1ccco1 [CBK063675] | 92.1
58 | COc1ccc(-c2cnc(N)c(NCCCN3CCOCC3)n2)c(OC)c1OC [CBK063676] | 113
59 | COc1cccc(-c2cnc(N)c(NCc3ccco3)n2)c1 [CBK063684] | 99.6
60 | Nc1ncc(-c2cc(C(F)(F)F)cc(C(F)(F)F)c2)nc1NCc1ccco1 [CBK063689] | 91.6
61 | CN(C)CCNc1nc(-c2cccc3ncccc23)cnc1N [CBK063693] | 102
62 | COc1ccc(C(C)C)cc1-c1cnc(N)c(NCc2ccncc2)n1 [CBK063695] | 97.5
63 | C[C@@H](Nc1nc(-c2cccc(-c3ccccc3)c2)cnc1N)c1ccccc1 [CBK063704] | 96.3
64 | C[C@H](Nc1nc(-c2ccoc2)cnc1N)c1ccccc1 [CBK063707] | 105
65 | C[C@H](Nc1nc(-c2cccc(C(=O)NCCN(C)C)c2)cnc1N)c1ccccc1 [CBK063714] | 112
66 | C[C@H](Nc1nc(-c2cccc(C(N)=O)c2)cnc1N)c1ccccc1 [CBK063715] | 97.1
